According to ChEMBL document CHEMBL1201862, “PubChem BioAssay data set” (2004):
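96-well plates; 48 h exposure; 5 concentrations. Endpoints by linear interpolation between flanking doses. Not reached: highest tested concentration assigned. GI50 is the concentration that inhibits growth by half.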 The source made the active and inactive calls. Rule as the data show it: active = GI50 up to about 1.1 µM and inactive = higher.

Tests used:
Test in all cases: NCI tumour cell line growth inhibition, 48 h
MDA-N = tested on: MDA-N
HT-29 = tested on: HT-29
TK-10 = tested on: TK-10
NCI-H522 = tested on: NCI-H522
Hs-578T = tested on: Hs-578T
SK-OV-3 = tested on: SK-OV-3
HCT-15 = tested on: HCT-15
OVCAR-3 = tested on: OVCAR-3
HL-60 = tested on: HL-60
MDA-MB-435 = tested on: MDA-MB-435
SNB-19 = tested on: SNB-19
HCT-116 = tested on: HCT-116
M14 = tested on: M14
BT-549 = tested on: BT-549
KM12 = tested on: KM12
NCI-H460 = tested on: NCI-H460
A549 = tested on: A549
CAKI-1 = tested on: CAKI-1
NCI/ADR-RES = tested on: NCI/ADR-RES

Measured: GI50

CCC(=O)NC(Nc1ccc(O)cc1)(C(F)(F)F)C(F)(F)F
29.9 µM: HCT-15
inactive: MDA-N 17.9 µM | HT-29 > 100 µM | TK-10 > 100 µM | NCI-H522 27.4 µM | Hs-578T > 100 µM | SK-OV-3 > 100 µM | OVCAR-3 40.6 µM | HL-60 18.5 µM | MDA-MB-435 25.2 µM | SNB-19 > 100 µM | HCT-116 46.3 µM | M14 80.5 µM | BT-549 28.1 µM | KM12 62.7 µM | NCI-H460 > 100 µM

CC(=O)NC1(NC(C)=O)C2CC(C1Cc1ccccc1)C(C)(C)C2C (stereo not drawn)
inactive: MDA-N > 100 µM | HT-29 > 100 µM | A549 > 100 µM | TK-10 > 100 µM | NCI-H522 > 100 µM | Hs-578T > 100 µM | SK-OV-3 > 100 µM | CAKI-1 > 100 µM | OVCAR-3 > 100 µM | HL-60 > 100 µM | MDA-MB-435 > 100 µM | SNB-19 > 100 µM | HCT-116 > 100 µM | M14 > 100 µM | BT-549 > 100 µM | KM12 > 100 µM | NCI-H460 > 100 µM

Cc1cc(C)n(C(=CC(=O)C(Cl)Cl)n2nc(C)cc2C)n1
inactive: A549 21.7 µM | TK-10 3.18 µM | NCI-H522 1.79 µM | Hs-578T 5.21 µM | SK-OV-3 23.5 µM | CAKI-1 4.94 µM | OVCAR-3 3.66 µM | HL-60 3.32 µM | MDA-MB-435 2.52 µM | SNB-19 10.7 µM | HCT-116 1.76 µM | M14 2.83 µM | NCI/ADR-RES 2.65 µM | BT-549 2.45 µM | KM12 6.49 µM | NCI-H460 6.97 µM
2.73 µM: HCT-15

CC1(C)C=[N+]([O-])C(C)(C)N1O
> 10 µM: HCT-15
inactive: MDA-N > 10 µM | HT-29 > 10 µM | A549 > 10 µM | TK-10 > 10 µM | NCI-H522 > 10 µM | CAKI-1 > 10 µM | OVCAR-3 > 10 µM | HL-60 > 10 µM | MDA-MB-435 > 10 µM | SNB-19 > 10 µM | HCT-116 > 10 µM | M14 > 10 µM | NCI/ADR-RES > 10 µM | BT-549 > 10 µM | KM12 > 10 µM | NCI-H460 > 10 µM

O=C(O)C1(Cc2ccc3c(c2)CCC3)Cc2ccccc2C1
inactive: MDA-N > 100 µM | HT-29 88.3 µM | A549 43 µM | TK-10 > 100 µM | NCI-H522 42.3 µM | Hs-578T 73.1 µM | SK-OV-3 31 µM | OVCAR-3 71.3 µM | HL-60 35.2 µM | MDA-MB-435 > 100 µM | SNB-19 > 100 µM | HCT-116 50.4 µM | M14 > 100 µM | NCI/ADR-RES 78.2 µM | BT-549 29.8 µM | KM12 46.3 µM | NCI-H460 52.1 µM
54.2 µM: HCT-15

NS(=O)(=O)c1ccc(CNC(=S)NC(=O)Nc2ccc(Cl)c(Cl)c2)cc1
inactive: MDA-N 20 µM | HT-29 23.2 µM | A549 23.6 µM | TK-10 39.5 µM | NCI-H522 16 µM | Hs-578T 17.1 µM | SK-OV-3 19.6 µM | SNB-19 19.8 µM | HCT-116 17.5 µM | M14 19 µM | NCI/ADR-RES 19 µM | BT-549 16.9 µM | KM12 19 µM | NCI-H460 25.2 µM
16.2 µM: HCT-15

COc1ccc(CCCNC(=O)c2cc(OC)c(OC)cc2CCO)cc1OC
> 100 µM: HCT-15
inactive: HT-29 > 100 µM | A549 > 100 µM | TK-10 > 100 µM | NCI-H522 > 100 µM | Hs-578T > 100 µM | SK-OV-3 > 100 µM | CAKI-1 > 100 µM | OVCAR-3 > 100 µM | HL-60 > 100 µM | MDA-MB-435 > 100 µM | SNB-19 > 100 µM | HCT-116 > 100 µM | M14 > 100 µM | NCI/ADR-RES > 100 µM | BT-549 > 100 µM | KM12 > 100 µM | NCI-H460 > 100 µM
